Laboratory results reported in article PMC9481151, “Discovery of new symmetrical and asymmetrical nitrile-containing 1,4-dihydropyridine derivatives as dual kinases and P-glycoprotein inhibitors: synthesis, in vitro assays, and in silico studies” (Journal of Enzyme Inhibition and Medicinal Chemistry, 2022).

Legend:
Escherichia coli = test: Agar well diffusion method
KM12 = test: NCI single dose (10 µM) SRB screen; format: cell-based, human; settings: colon cancer, 48 h
M14 = test: NCI single dose (10 µM) SRB screen; format: cell-based, human; settings: melanoma, 48 h
NCI 60 cancer cell lines = test: NCI single dose (10 µM) SRB screen, mean over panel; format: cell-based, human; settings: mean over 60 cell lines, 48 h
NCI-H226 = test: NCI single dose (10 µM) SRB screen; format: cell-based, human; settings: non-small cell lung cancer, 48 h
CAKI-1 = test: NCI single dose (10 µM) SRB screen; format: cell-based, human; settings: renal cancer, 48 h
SR = test: NCI single dose (10 µM) SRB screen; format: cell-based, human; settings: leukaemia, 48 h
Bacillus subtilis = test: Agar well diffusion method
MCF7 = test: NCI single dose (10 µM) SRB screen; format: cell-based, human; settings: breast cancer, 48 h
NCI-H23 = test: NCI single dose (10 µM) SRB screen; format: cell-based, human; settings: non-small cell lung cancer, 48 h
SN12C = test: NCI single dose (10 µM) SRB screen; format: cell-based, human; settings: renal cancer, 48 h
COLO 205 = test: NCI single dose (10 µM) SRB screen; format: cell-based, human; settings: colon cancer, 48 h
U251 = test: NCI single dose (10 µM) SRB screen; format: cell-based, human; settings: CNS cancer, 48 h
NCI-H522 = test: NCI single dose (10 µM) SRB screen; format: cell-based, human; settings: non-small cell lung cancer, 48 h
TK-10 = test: NCI single dose (10 µM) SRB screen; format: cell-based, human; settings: renal cancer, 48 h
PC-3 = test: NCI single dose (10 µM) SRB screen; format: cell-based, human; settings: prostate cancer, 48 h
RPMI-8226 = test: NCI single dose (10 µM) SRB screen; format: cell-based, human; settings: leukaemia, 48 h
MALME-3M = test: NCI single dose (10 µM) SRB screen; format: cell-based, human; settings: melanoma, 48 h
T-47D = test: NCI single dose (10 µM) SRB screen; format: cell-based, human; settings: breast cancer, 48 h
HCT-116 = test: NCI single dose (10 µM) SRB screen; format: cell-based, human; settings: colon cancer, 48 h
Pseudomonas aeruginosa = test: Agar well diffusion method
UACC-62 = test: NCI single dose (10 µM) SRB screen; format: cell-based, human; settings: melanoma, 48 h
NCI-H460 = test: NCI single dose (10 µM) SRB screen; format: cell-based, human; settings: non-small cell lung cancer, 48 h
IGROV1 = test: NCI single dose (10 µM) SRB screen; format: cell-based, human; settings: ovarian cancer, 48 h
UACC-257 = test: NCI single dose (10 µM) SRB screen; format: cell-based, human; settings: melanoma, 48 h
OVCAR-5 = test: NCI single dose (10 µM) SRB screen; format: cell-based, human; settings: ovarian cancer, 48 h
SF-295 = test: NCI single dose (10 µM) SRB screen; format: cell-based, human; settings: CNS cancer, 48 h
OVCAR-4 = test: NCI single dose (10 µM) SRB screen; format: cell-based, human; settings: ovarian cancer, 48 h
Candida albicans = test: Agar well diffusion method
SK-MEL-2 = test: NCI single dose (10 µM) SRB screen; format: cell-based, human; settings: melanoma, 48 h
SNB-19 = test: NCI single dose (10 µM) SRB screen; format: cell-based, human; settings: CNS cancer, 48 h
K-562 = test: NCI single dose (10 µM) SRB screen; format: cell-based, human; settings: leukaemia, 48 h
UO-31 = test: NCI single dose (10 µM) SRB screen; format: cell-based, human; settings: renal cancer, 48 h
HOP-92 = test: NCI single dose (10 µM) SRB screen; format: cell-based, human; settings: non-small cell lung cancer, 48 h
Staphylococcus aureus = test: Agar well diffusion method
SK-MEL-28 = test: NCI single dose (10 µM) SRB screen; format: cell-based, human; settings: melanoma, 48 h
HL-60(TB) = test: NCI single dose (10 µM) SRB screen; format: cell-based, human; settings: leukaemia, 48 h
MDA-MB-468 = test: NCI single dose (10 µM) SRB screen; format: cell-based, human; settings: breast cancer, 48 h
BT-549 = test: NCI single dose (10 µM) SRB screen; format: cell-based, human; settings: breast cancer, 48 h
Aspergillus flavus = test: Agar well diffusion method
SNB-75 = test: NCI single dose (10 µM) SRB screen; format: cell-based, human; settings: CNS cancer, 48 h
OVCAR-3 = test: NCI single dose (10 µM) SRB screen; format: cell-based, human; settings: ovarian cancer, 48 h
SK-OV-3 = test: NCI single dose (10 µM) SRB screen; format: cell-based, human; settings: ovarian cancer, 48 h
786-0 = test: NCI single dose (10 µM) SRB screen; format: cell-based, human; settings: renal cancer, 48 h
ACHN = test: NCI single dose (10 µM) SRB screen; format: cell-based, human; settings: renal cancer, 48 h
HS578T = test: NCI single dose (10 µM) SRB screen; format: cell-based, human; settings: breast cancer, 48 h
NCI-H322M = test: NCI single dose (10 µM) SRB screen; format: cell-based; settings: non-small cell lung cancer, 48 h
CCRF-CEM = test: NCI single dose (10 µM) SRB screen; format: cell-based, human; settings: leukaemia, 48 h
HCC-2998 = test: NCI single dose (10 µM) SRB screen; format: cell-based, human; settings: colon cancer, 48 h
HCT-15 = test: NCI single dose (10 µM) SRB screen; format: cell-based, human; settings: colon cancer, 48 h
RXF 393 = test: NCI single dose (10 µM) SRB screen; format: cell-based, human; settings: renal cancer, 48 h

For COCCOC(=O)C1=C(C)NC(C)=C(C(=O)OC)C1c1cccc(C#N)c1 (racemic) [Compound 2d, (±)-3-(2-Methoxyethyl) 5-methyl 4-(3-cyanophenyl)-2,6-dimethyl-1,4-dihydropyridine-3,5-dicarboxylate], the zone of inhibition at 1000 µg/mL (Escherichia coli; Escherichia coli, 24 h, read-out: Diameter of inhibition zone, E. coli) was 10 mm, the “% activity index, E. coli” value (Escherichia coli; relative to ciprofloxacin) was 38.5% and the “GI% KM12” value (KM12) was “– (Only GI% ≥ 10 are shown)”. For the same compound, the “GI% M14” value (M14) was “– (Only GI% ≥ 10 are shown)”, the “Mean GI%” value (NCI 60 cancer cell lines) was −2% and the “GI% NCI-H226” value (NCI-H226) was “– (Only GI% ≥ 10 are shown)”. The “GI% CAKI-1” value (CAKI-1) was “– (Only GI% ≥ 10 are shown)”, the “GI% SR” value (SR) was “– (Only GI% ≥ 10 are shown)” and the zone of inhibition at 1000 µg/mL (Bacillus subtilis; Bacillus subtilis, 24 h, read-out: Diameter of inhibition zone, B. subtilis) was 10 mm. For the same compound, the “% activity index, B. subtilis” value (Bacillus subtilis; relative to ciprofloxacin) was 43.5%, the “GI% MCF7” value (MCF7) was “– (Only GI% ≥ 10 are shown)” and the “GI% NCI-H23” value (NCI-H23) was “– (Only GI% ≥ 10 are shown)”. The “GI% SN12C” value (SN12C) was “– (Only GI% ≥ 10 are shown)”, the “GI% COLO 205” value (COLO 205) was “– (Only GI% ≥ 10 are shown)” and the “GI% U251” value (U251) was “– (Only GI% ≥ 10 are shown)”. For the same compound, the “GI% NCI-H522” value (NCI-H522) was “– (Only GI% ≥ 10 are shown)”, the “GI% TK-10” value (TK-10) was “– (Only GI% ≥ 10 are shown)” and the “GI% PC-3” value (PC-3) was “– (Only GI% ≥ 10 are shown)”. The “GI% RPMI-8226” value (RPMI-8226) was “– (Only GI% ≥ 10 are shown)”, the “GI% MALME-3M” value (MALME-3M) was “– (Only GI% ≥ 10 are shown)” and the “GI% T-47D” value (T-47D) was “– (Only GI% ≥ 10 are shown)”. For the same compound, the “GI% HCT-116” value (HCT-116) was “– (Only GI% ≥ 10 are shown)”, the zone of inhibition at 1000 µg/mL (Pseudomonas aeruginosa; Pseudomonas aeruginosa, 24 h, read-out: Diameter of inhibition zone, P. aeruginosa) was 14 mm and the “% activity index, P. aeruginosa” value (Pseudomonas aeruginosa; relative to ciprofloxacin) was 60.9%. The “GI% UACC-62” value (UACC-62) was “– (Only GI% ≥ 10 are shown)”, the “GI% NCI-H460” value (NCI-H460) was “– (Only GI% ≥ 10 are shown)” and the “GI% IGROV1” value (IGROV1) was “– (Only GI% ≥ 10 are shown)”. For the same compound, the “GI% UACC-257” value (UACC-257) was “– (Only GI% ≥ 10 are shown)”, the “GI% OVCAR-5” value (OVCAR-5) was “– (Only GI% ≥ 10 are shown)” and the “GI% SF-295” value (SF-295) was “– (Only GI% ≥ 10 are shown)”. The “GI% OVCAR-4” value (OVCAR-4) was “– (Only GI% ≥ 10 are shown)”, the zone of inhibition at 1000 µg/mL (Candida albicans; Candida albicans, 24 h, read-out: Diameter of inhibition zone, C. albicans) was 12 mm and the “% activity index, C. albicans” value (Candida albicans; relative to clotrimazole) was 44.4%. For the same compound, the “GI% SK-MEL-2” value (SK-MEL-2) was “– (Only GI% ≥ 10 are shown)”, the “GI% SNB-19” value (SNB-19) was “– (Only GI% ≥ 10 are shown)” and the “GI% K-562” value (K-562) was “– (Only GI% ≥ 10 are shown)”. For the same compound, the “GI% UO-31” value (UO-31) was “– (Only GI% ≥ 10 are shown)”, the “GI% HOP-92” value (HOP-92) was “– (Only GI% ≥ 10 are shown)” and the zone of inhibition at 1000 µg/mL (Staphylococcus aureus; Staphylococcus aureus, 24 h, read-out: Diameter of inhibition zone, S. aureus) was 15 mm. The “% activity index, S. aureus” value (Staphylococcus aureus; relative to ciprofloxacin) was 62.5%, the “GI% SK-MEL-28” value (SK-MEL-28) was “– (Only GI% ≥ 10 are shown)” and the “GI% HL-60(TB)” value (HL-60(TB)) was “– (Only GI% ≥ 10 are shown)”. The “GI% MDA-MB-468” value (MDA-MB-468) was “– (Only GI% ≥ 10 are shown)”, the “GI% BT-549” value (BT-549) was “– (Only GI% ≥ 10 are shown)” and the zone of inhibition at 1000 µg/mL (Aspergillus flavus; Aspergillus flavus, 24 h, read-out: Diameter of inhibition zone, A. flavus) was 15 mm. For the same compound, the “% activity index, A. flavus” value (Aspergillus flavus; relative to clotrimazole) was 60%, the “GI% SNB-75” value (SNB-75) was 15% and the “GI% OVCAR-3” value (OVCAR-3) was “– (Only GI% ≥ 10 are shown)”. The “GI% SK-OV-3” value (SK-OV-3) was “– (Only GI% ≥ 10 are shown)”, the “GI% 786-0” value (786-0) was “– (Only GI% ≥ 10 are shown)” and the “GI% ACHN” value (ACHN) was “– (Only GI% ≥ 10 are shown)”. For the same compound, the “GI% HS578T” value (HS578T) was “– (Only GI% ≥ 10 are shown)”, the “GI% NCI-H322M” value (NCI-H322M) was “– (Only GI% ≥ 10 are shown)” and the “GI% CCRF-CEM” value (CCRF-CEM) was “– (Only GI% ≥ 10 are shown)”. The “GI% HCC-2998” value (HCC-2998) was “– (Only GI% ≥ 10 are shown)”, the “GI% HCT-15” value (HCT-15) was “– (Only GI% ≥ 10 are shown)” and the “GI% RXF 393” value (RXF 393) was “– (Only GI% ≥ 10 are shown)”.
